What was measured:
Experiment in all cases: Greenhouse bioassay for resistance to ALS-inhibiting herbicides (dry matter, visual injury)
Assay type in all cases: in vivo, Shattercane (Sorghum bicolor subsp. X drummondii)
[1] = tested on: shattercane biotype P8-30 (Mutant C); details: for resistance of the biotype to the herbicide: biotype P8-30 (Mutant C), relative to the wild-type, dry matter and visual ratings; for growth reduction: biotype P8-30, growth in the three weeks after herbicide application
Protocol: (§1) The bioassay experiment was conducted in a greenhouse on the East Campus of the University of Nebraska-Lincoln, in Lincoln, Nebr. The experimental design was a randomized complete block. Shattercane seed was planted in 0.9 L square plastic pots in Miracle-Gro® Moisture Control® Potting Mix (The Scotts Company LLC, Marysville, Ohio). The photoperiod was 15/9 light/dark with supplemental light provided by sodium halide lamps. Greenhouse temperatures were maintained at 24±2 C (day) and 19±2 C (night). Shattercane was thinned to 1 plant per pot when it reached the 2 leaf stage. Herbicide treatments (Table 1 in Appendix I) were applied when the shattercane reached the V4 growth stage and was approximately 12 cm tall. Individual plants ranged from growth stage V3 to V5, and in height from 7 to 19 cm. At least one tiller had formed on most plants by the time of application. Herbicides were applied using an 8001 even flat fan nozzle at 207 kPa in a single-tip track sprayer located in the greenhouse facility. The application rate was 187 l/ha, and treatment solutions were prepared in distilled water. Visual injury ratings were made 7, 14 and 21 days after treatment on a scale of 0 to 100, where 0 represents no injury and 100 represents plant death. At 21 DAT, plants were harvested at the soil surface, dried for 48 h at 70 C, and weighed to determine dry matter. Dry matter data for each experimental unit was divided by the average dry matter of the untreated control plants of that biotype and multiplied by 100 to determine relative percent biomass to the untreated control. Dry matter data for each experimental unit was also divided by the average dry matter data of the glyphosate-treated plants of that biotype to determine growth in the three weeks after herbicide application. Data were subjected to ANOVA using Proc GLM of SAS 9.1 (SAS Institute Inc., Cary, N.C.). The Run by Herbicide by Population interaction was significant for each variable, so runs were analyzed separately. The Herbicide by Population interaction was also significant for each run and each variable, so data were analyzed by herbicide to describe differences among the populations. Treatment means were separated using Duncan's Multiple Range test.

[2] = tested on: shattercane biotype P9-102 (Mutant B); details: dry matter and visual ratings
Protocol: as §1

[3] = tested on: shattercane biotype 5-4Farm (Mutant D); details: plants harvested 21 DAT
Protocol: as §1

[4] = tested on: wild type shattercane; details: wild type biotype, plants harvested 21 DAT
Protocol: as §1

[5] = tested on: shattercane biotype P2-205 (Mutant A); details: dry matter and visual ratings
Protocol: as §1

SMILES: COc1cc(OC)nc(Oc2cccc(Oc3nc(OC)cc(OC)n3)c2C(=O)O)n1 [bispyribac]
- resistance of the biotype to the herbicide [1]: partial resistance
- resistance of the biotype to the herbicide ([1]; listed as Bispyribac): resistance
- growth reduction [1]: approximately 65%

SMILES: CCS(=O)(=O)c1cccnc1S(=O)(=O)NC(=O)Nc1nc(OC)cc(OC)n1 [rimsulfuron]
- resistance of the biotype to the herbicide [1]: partial resistance
- resistance of the biotype to the herbicide ([1]; listed as Rimsulfuron): resistance
- growth reduction [1]: ~84%

SMILES: COc1cc(OC)nc(NC(=O)NS(=O)(=O)c2ncccc2C(=O)N(C)C)n1 [nicosulfuron]
- resistance of the biotype to the herbicide [2]: resistant
- resistance of the biotype to the herbicide [1]: resistance

SMILES: COc1cnc(OC)n2nc(NS(=O)(=O)c3c(OCC(F)F)cccc3C(F)(F)F)nc12 [penoxsulam]
- effect on dry matter [3]: did not reduce dry matter
- effect on dry matter [4]: did not reduce dry matter

SMILES: COc1cc(OC)nc(NC(=O)NS(=O)(=O)c2cc(NC=O)ccc2C(=O)N(C)C)n1 [foramsulfuron]
- resistance of the biotype to the herbicide [2]: resistant
- resistance of the biotype to the herbicide ([2]; listed as Foramsulfuron): resistance
- resistance of the biotype to the herbicide [1]: resistance
- resistance of the biotype to the herbicide [5]: partially resistant
- resistance of the biotype to the herbicide ([5]; listed as Foramsulfuron): resistance

SMILES: O=C(Nc1nc(OC(F)F)cc(OC(F)F)n1)NS(=O)(=O)c1ccccc1C(=O)O [primisulfuron]
- resistance of the biotype to the herbicide [2]: partially resistant
- resistance of the biotype to the herbicide ([2]; listed as Primisulfuron): resistance
- resistance of the biotype to the herbicide [1]: resistance
- resistance of the biotype to the herbicide [5]: partially resistant
- resistance of the biotype to the herbicide ([5]; listed as Primisulfuron): resistance

SMILES: CCc1cnc(C2=NC(C)(C(C)C)C(=O)N2)c(C(=O)O)c1 (stereo not drawn) [Imazethapyr]
- resistance of the biotype to the herbicide [1]: resistance

SMILES: CCCOc1nn(C(=O)[N-]S(=O)(=O)c2ccccc2C(=O)OC)c(=O)n1C.[Na+] [propoxycarbazone]
- resistance of the biotype to the herbicide [2]: resistant
- resistance of the biotype to the herbicide ([2]; listed as Propoxycarbazone): resistance
- resistance of the biotype to the herbicide [1]: resistance
- resistance of the biotype to the herbicide [5]: resistant
- resistance of the biotype to the herbicide ([5]; listed as Propoxycarbazone): resistance

SMILES: COc1nn(C(=O)NS(=O)(=O)c2c(C(=O)O)csc2C)c(=O)n1C [thiencarbazone]
- resistance of the biotype to the herbicide [2]: partially resistant
- resistance of the biotype to the herbicide ([2]; listed as Thiencarbazone): resistance
- resistance of the biotype to the herbicide [1]: resistance
- resistance of the biotype to the herbicide [5]: partially resistant
- resistance of the biotype to the herbicide ([5]; listed as Thiencarbazone): resistance

SMILES: CC(C)C1(C)N=C(c2nc3ccccc3cc2C(=O)O)NC1=O (stereo not drawn) [Imazaquin]
- resistance of the biotype to the herbicide [1]: resistance

SMILES: COc1nc(C)nc(NC(=O)NS(=O)(=O)c2ccccc2Cl)n1 [chlorsulfuron]
- resistance of the biotype to the herbicide [2]: resistance
- resistance of the biotype to the herbicide [1]: resistance
- resistance of the biotype to the herbicide [5]: resistant
- resistance of the biotype to the herbicide ([5]; listed as Chlorsulfuron): resistance

SMILES: COCc1cnc(C2=NC(C)(C(C)C)C(=O)N2)c(C(=O)O)c1 (stereo not drawn) [imazamox]
- resistance of the biotype to the herbicide [1]: resistance
- resistance of the biotype to the herbicide [5]: partially resistant
- resistance of the biotype to the herbicide ([5]; listed as Imazamox): resistance

Source: US9365862B1, “Herbicide resistant sorghum mutants” (NUtech Ventures, priority 2011, dated 2016)
